Converted amounts (≈) assume the structure as drawn.
Experiments:
[1] = tested on: Azole-susceptible and Azole-resistant Candida albicans Strains; experiment: Antifungal activity against azole-susceptible and azole-resistant patient isolates; type: cell-based; conditions: for IC50 / IC80: Candida albicans
Method: Antimicrobial Assay. Susceptibility testing is performed using a modified version of the National Committee for Clinical Laboratory Standards methods. M intracelluare is tested using a modified method of Franzblau, et al. Seventy-two to 96 h prior to the assay, the M intracellulare subculture is prepared by resuspending cells from the surface of the slant in Middlebrook 7H9 broth with OADC enrichment and incubating at 37° C. and 10% CO2. On the day of the assay, prepared samples (dissolved in DMSO) are serially-diluted using 20%/0.9% DMSO/saline and transferred in duplicate to 96 well flat bottom microplates. Candida spp. and C. neoformans inocula are prepared by picking 1–3 colonies from agar plates and resuspending in ˜5 mL 0.9% sterile saline. The absorption of 10011 of the saline suspensions and the M. intracellulare subculture at 630 nm using the EL-340 Biokinetics Reader (Bio-Tek Instruments, Vermont) is compared either the 0.5 McFarland standard of 0.03 (Mi) or standard curves. The microorganisms are diluted in broth [RPMI 1640/2% dextrose/MOPS at pH 7.3 (Cellgro) for Candida spp., Sabouraud Dextrose for C. neoformans, and 5% Alamar Blue™(BioSource International, Camarillo, Calif.) in Middlebrook 7H9 broth with OADC enrichment, pH=7.3 for M. intracellulare to afford final target inocula of: Candida spp.: 1.0×10^4, C. neoformans: 1.0×10^5, and M. intracellulare: 2.0×10^6 after addition to the samples. The microbial inocula are added to the samples to achieve a final volume of 200 μl. Growth (saline only), solvent and blank (media only) controls are included on each test plate. Drug controls [Ciprofloxacin (ICN Biomedicals, Ohio) for bacteria and Amphotericin B (ICN Biomedicals, Ohio) for fungi] are included in each assay. All organisms are read at either 630 nm using the EL-340 Biokinetics Reader (Bio-Tek Instruments, Vermont) or 544ex/590em, (M. intracellulare) using the Polarstar Galaxy Plate Reader (BMG LabTechnologies, Germany) prior to and after incubation: Candida spp. at 37° C. for 18–24 h, C. neoformans at 30° C. for 72 h, and M. intracellulare at 37° C. and 10% CO2 for 72 h. Percent growth is calculated and plotted versus test concentration to afford the IC50 (sample concentration that affords 50% growth of the organism) and the minimum inhibitory concentration (MIC) and minimum fungicidal or bactericidal concentrations (MFC/MBCs). The MIC is defined as the lowest test concentration that allows no detectable growth (for M. intracellulare no color change from blue to pink). Minimum fungicidal or bactericidal concentrations are determined by removing 5 μl from each clear (or blue) well, transferring to agar and incubating as previously mentioned. The MFC/MBC is defined as the lowest test concentration that kills 100% of the organism (allows no growth on agar).
The bioassay method is a modified version of the National Committee for Clinical Laboratory Standards methods, and is same as the one described in example 8 by which the biological data of compounds 1 and 2 (Tables 1 and 2) were obtained, except that the pH of the culture media for Candida spp. was changed from 7.3 to 4.5.

[2] = tested on: Phomopsis obscurans; experiment: 96-well microtiter fungal growth assay; type: cell-based; conditions: Paraphomopsis obscurans, 120 h, read-out: IC50 (growth inhibition)
From the text: Pathogen collection. Isolates of Colletotrichum acutatum Simmonds, Colletotrichum fragariae Brooks, and Colletotrichum gloeosporioides (Penz.) Penz. & Sacc. in Penz. were obtained from B. J. Smith, USDA, ARS, Small Fruit Research Station, Poplarville, Mass. Colletotrichum fragariae (isolate CF63), C. acutatum (isolate CAGoff), and C. gloeosporioides (isolate CG162) were used for all pathogen and bioautography studies. Isolate CF63 is one of the most virulent isolates at infecting strawberry plants and inducing both crown and fruit rot (Smith and Black, 1990). CF63, CAGoff, and CG162 were used as standard test isolates because of our extensive knowledge of these isolates and their known fungicide sensitivity profiles in both bioautography and microtiter formats. The three Colletotrichum species were isolated from strawberry (Fragaria xananassa Duchesne). Botrytis cinerea Pers.:Fr, was isolated from commercial grape (Vitis vinifera L.) and Fusarium oxysporum Schlechtend:Fr from orchid (Cynoches sp.) by David E. Wedge, USDA ARS Natural Products Utilization Research Unit. Phomopsis viticola (Sacc.) and P. obscurans (Ellis & Everh.) Sutton were from Mike A. Ellis, Ohio State University, Wooster, Ohio. Fungi were grown on potato-dextrose agar (PDA, Difco, Detroit Mich.) in 9 cm petri dishes and incubated in a growth chamber at 24±2° C. and under cool-white fluorescent lights ([…]·m^−2·sec^−1 light) with 12-h photoperiod.
Inoculum preparation. Conidia were harvested from 7–10 day-old cultures by flooding plates with 5 mL of sterile distilled water and dislodging conidia by softly brushing the colonies with an L-shaped glass rod. Conidial suspensions were filtered through sterile miracloth (Calbiochem-Novabiochem Corp., La Jolla Calif.) to remove mycelia. Conidia concentrations were determined photometrically, from a standard curve based on the absorbance at 625 nm and suspensions were then adjusted with sterile distilled water to a concentration of 1.0×10^6 conidia/mL.
Microtiter assay. A standardized 96-well microtiter plate assay developed for discovery of natural product fungicidal agents. A 96-well microtiter assay was used to determine sensitivity of B. cinerea, C. acutatum, C. fragariae, C. gloeosporioides, F. oxysporum, Phomopsis viticola, and P. obscurans to the various antifungal agents in comparison with known fungicidal standards. Vinclozolin, captan, and thiabendazole, which represent three different modes of action, were used as standards in this experiment. Each fungus was challenged in a dose-response format using test compounds where the final treatment concentrations were 0.3, 3.0 and 30.0 μM. Microtiter plates (Nunc MicroWell, untreated; Roskilde, Denmark) were covered with a plastic lid and incubated in a growth chamber at 24±1 C and 12 h photoperiod under 60±5 μmol light. Growth was then evaluated by measuring absorbance of each well at 620 nm using a microplate photometer (Packard Spectra Count, Packard Instrument Co., Downers Grove, Ill.).
Microbioassay Experimental Design. Chemical sensitivity of each fungus 96-well microtiter assay is used to determine sensitivity of B. cinerea, C. acutatum, C. fragariae, C. gloeosporioides, F. oxysporum, Phomopsis viticola, and P. obscurans. Each chemical is evaluated in duplicate at each dose (0.3, 3.0 and 30.0 μM) and repeated twice in time. Sixteen wells containing broth and inoculum serves as positive controls, eight wells containing solvent at the appropriate concentration and broth without inoculum are used as negative controls. […] Treatments are arranged as a split-plot design replicated twice in time. Whole-plots were fungal isolates and sub-plots are chemicals. Each dose level and response time is analyzed separately. The SAS system's analysis of variance procedure (Statistical Analysis System, Cary, N.C.) is used to identify significant factors and Fisher's protected LSD is used to separate means.

[3] = Isolate 1, azole-susceptible strain (first listing, r6)
[4] = Isolate 1, azole-susceptible strain (second listing, r10)
[5] = Isolate 2, azole-resistant strain
[6] = Isolate 5, azole-resistant strain
[7] = Isolate 8, azole-resistant strain
[8] = Isolate 17, azole-resistant strain

IC50 [1, 3] [µg/mL] | IC50 [1, 4] [µg/mL] | IC50 [1, 5] [µg/mL] | IC50 [1, 6] [µg/mL] | IC50 [1, 7] [µg/mL] | IC50 [1, 8] [µg/mL] | SMILES | IC80 [1, 3] [µg/mL] | IC80 [1, 4] [µg/mL] | IC80 [1, 5] [µg/mL] | IC80 [1, 6] [µg/mL] | IC80 [1, 7] [µg/mL] | IC80 [1, 8] [µg/mL] | IC95 [1, 3] [µg/mL] | IC95 [1, 4] [µg/mL] | IC95 [1, 5] [µg/mL] | IC95 [1, 6] [µg/mL] | IC95 [1, 7] [µg/mL] | Decreases in susceptibility to fluconazole of the isolates ([1]; resistant isolates relative to susceptible strain) | IC50 [2] [µM]
1 (≈ 3.27 µM) | 0.1 (≈ 0.327 µM) | 1 (≈ 3.27 µM) | 7.5 (≈ 24.5 µM) | 15 (≈ 49 µM) | 40 (≈ 131 µM) | OC(Cn1cncn1)(Cn1cncn1)c1ccc(F)cc1F [Fluconazole, reference compound] | 1.5 (≈ 4.9 µM) | 0.2 (≈ 0.653 µM) | 5 (≈ 16.3 µM) | 10 (≈ 32.7 µM) | 20 (≈ 65.3 µM) | 95 (≈ 310 µM) | 2.00 (≈ 6.53 µM) | 100.00 (≈ 327 µM) | 10.00 (≈ 32.7 µM) | 10.00 (≈ 32.7 µM) | 25.00 (≈ 81.6 µM) | up to 400 fold | –
– | – | – | – | – | – | CCCCNC(=O)n1c(NC(=O)OC)nc2ccccc21 [benomyl] | – | – | – | – | – | – | – | – | – | – | – | – | < 6.25

Source: US7109380B2, “Cyclopentenedione antifungal compounds and methods for their use” (The University of Mississippi, priority 2004, dated 2006)
